Data published in publication PMC9821906, “Synthesis of New Triazole-Based Thiosemicarbazone Derivatives as Anti-Alzheimer’s Disease Candidates: Evidence-Based In Vitro Study” (Molecules, 2022).

How the values were obtained:
[1] = target: acetylcholinesterase (AChE) (Homo sapiens, UniProt P22303); format: biochemical
Procedure: (§1) Based on previously described methods, in vitro study of AChE inhibitory profile was calculated. In order to make a stock solution, compounds being analyzed were dissolved in DMSO (1 mg/mL). In addition, the working solutions were also prepared by using serial dilution (1–100 μg/mL). The solution of AChE enzyme (20 μL; 0.1 U/mL), analogues being tested with different concentration and buffer of sodium phosphate (150 μL; pH 8.0; 0.1 M) were preincubated appropriately at 25 °C. The process was initiated as DTNB (10 mM; 10 μL) and […] (14 mM; 10 μL) were accumulated. The resulting residue was mixed (by using cyclomixer) and put on incubation for 10 min at 25 °C. Instead of compounds being tested using 10 μL DMSO, the absorbance against blank reading was calculated with a microplate reader at 410 nm.
(§2) By plotting a nonlinear graph between inhibition and concentration, IC50 was calculated using GraphPad Prism 5.3.

[2] = target: butyrylcholinesterase (BuChE) (Homo sapiens, UniProt P06276); format: biochemical
Sequence of butyrylcholinesterase (BuChE) (P06276 29-602): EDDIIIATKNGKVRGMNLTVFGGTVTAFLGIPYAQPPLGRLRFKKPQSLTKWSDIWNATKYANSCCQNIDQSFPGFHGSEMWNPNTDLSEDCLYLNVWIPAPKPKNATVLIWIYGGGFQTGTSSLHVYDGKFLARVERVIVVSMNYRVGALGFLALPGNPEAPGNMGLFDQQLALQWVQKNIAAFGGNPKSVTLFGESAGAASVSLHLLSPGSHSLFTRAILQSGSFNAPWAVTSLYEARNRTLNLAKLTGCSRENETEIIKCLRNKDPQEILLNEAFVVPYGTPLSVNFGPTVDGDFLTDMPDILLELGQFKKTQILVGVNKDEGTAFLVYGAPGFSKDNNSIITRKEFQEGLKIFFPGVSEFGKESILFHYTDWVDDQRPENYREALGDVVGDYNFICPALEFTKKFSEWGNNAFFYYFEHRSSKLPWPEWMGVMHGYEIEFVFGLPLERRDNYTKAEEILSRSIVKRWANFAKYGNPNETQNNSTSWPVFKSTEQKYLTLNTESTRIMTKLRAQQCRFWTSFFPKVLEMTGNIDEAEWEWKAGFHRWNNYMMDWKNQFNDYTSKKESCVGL
Procedure: as §1, §2
In order to explore the inhibition profile of in vitro BuChE enzyme, a similar procedure was adopted. For measurement of BuChE activity, the solution containing BuChE enzyme was used.

Sequence of acetylcholinesterase (AChE) (P22303 32-614, species assumed): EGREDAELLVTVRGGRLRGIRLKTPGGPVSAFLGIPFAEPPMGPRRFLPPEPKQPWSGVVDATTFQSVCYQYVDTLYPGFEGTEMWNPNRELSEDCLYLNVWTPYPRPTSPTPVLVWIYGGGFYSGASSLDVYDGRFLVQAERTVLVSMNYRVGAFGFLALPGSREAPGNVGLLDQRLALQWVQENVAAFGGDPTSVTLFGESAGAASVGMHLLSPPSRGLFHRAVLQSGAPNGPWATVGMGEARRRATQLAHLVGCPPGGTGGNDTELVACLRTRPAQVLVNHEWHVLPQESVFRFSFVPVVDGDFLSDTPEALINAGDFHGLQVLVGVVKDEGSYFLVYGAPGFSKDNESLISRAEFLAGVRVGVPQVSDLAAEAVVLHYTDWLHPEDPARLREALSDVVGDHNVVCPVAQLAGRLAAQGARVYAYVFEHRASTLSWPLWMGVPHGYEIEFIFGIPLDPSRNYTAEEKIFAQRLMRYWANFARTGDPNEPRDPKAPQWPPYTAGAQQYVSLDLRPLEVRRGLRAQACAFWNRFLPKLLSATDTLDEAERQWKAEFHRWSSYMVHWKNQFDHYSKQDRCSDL

Structure (SMILES) | IC50 [1] | Selectivity Index [1] | IC50 [2] | AChE IC50 [1] | BuChE IC50 [2]
O=[N+]([O-])c1ccc(-c2nnc(SC/C(=N/NC(=S)Nc3cccc([N+](=O)[O-])c3)c3ccc(-c4ccccc4)cc3)[nH]2)cc1 [6e, (.E)-2-(1-([1,1′-biphenyl]-4-yl)-2-((5-(4-nitrophenyl)-4H-1,2,4-triazol-3-yl)thio)ethylidene)-N-(3-nitrophenyl)hydrazine-1-carbothioamide] | 4700 ± 100 nM | 1.34 | 6.3 ± 0.1 µM |  | 
Cc1ccc(NC(=S)N/N=C(/CSc2nnc(-c3ccc([N+](=O)[O-])cc3)[nH]2)c2ccc(Cl)c(Cl)c2)c([N+](=O)[O-])c1 [6m, (.E)-2-(1-(3,4-dichlorophenyl)-2-((5-(4-nitrophenyl)-4H-1,2,4-triazol-3-yl)thio)ethylidene)-N-(4-methyl-2-nitrophenyl)hydrazine-1-carbothioamide] | 2700 ± 100 nM | 1.41 | 3.8 ± 0.1 µM |  | 
Cc1ccc(-c2ccc(NC(=S)N/N=C(/CSc3nnc(-c4ccc([N+](=O)[O-])cc4)[nH]3)c3ccc(Br)cc3)cc2)cc1 [6k, (.E)-2-(1-(4-bromophenyl)-2-((5-(4-nitrophenyl)-4H-1,2,4-triazol-3-yl)thio)ethylidene)-N-(4′-methyl-[1,1′-biphenyl]-4-yl)hydrazine-1-carbothioamide] | 12200 ± 300 nM | 1.15 | 14.1 ± 0.4 µM |  | 
Cc1ccc(/C(CSc2nnc(-c3ccc([N+](=O)[O-])cc3)[nH]2)=N\NC(=S)Nc2cc(Cl)c(Cl)cc2[N+](=O)[O-])c([N+](=O)[O-])c1 [6l, (.E)-N-(4,5-dichloro-2-nitrophenyl)-2-(1-(4-methyl-2-nitrophenyl)-2-((5-(4-nitrophenyl)-4H-1,2,4-triazol-3-yl)thio)ethylidene)hydrazine-1-carbothioamide] | 4600 ± 10 nM | 1.28 | 5.9 ± 0.1 µM |  | 
COc1cccc(/C(CSc2nnc(-c3ccc([N+](=O)[O-])cc3)[nH]2)=N\NC(=S)Nc2ccc(C)cc2[N+](=O)[O-])c1 [6t, (.E)-2-(1-(3-methoxyphenyl)-2-((5-(4-nitrophenyl)-4H-1,2,4-triazol-3-yl)thio)ethylidene)-N-(4-methyl-2-nitrophenyl)hydrazine-1-carbothioamide] | 1900 ± 100 nM | 1.32 | 2.5 ± 0.1 µM |  | 
O=[N+]([O-])c1ccc(-c2nnc(SC/C(=N/NC(=S)Nc3ccccc3)c3ccc(Cl)c(Cl)c3)[nH]2)cc1 [6o, (.E)-2-(1-(3,4-dichlorophenyl)-2-((5-(4-nitrophenyl)-4H-1,2,4-triazol-3-yl)thio)ethylidene)-N-phenylhydrazine-1-carbothioamide] | 2500 ± 300 nM | 1.24 | 3.1 ± 0.4 µM |  | 
CN(C)c1cc(Cl)c(NC(=S)N/N=C(/CSc2nnc(-c3ccc([N+](=O)[O-])cc3)[nH]2)c2ccc(-c3ccccc3)cc2)cc1Cl [6j, (.E)-2-(1-([1,1′-biphenyl]-4-yl)-2-((5-(4-nitrophenyl)-4H-1,2,4-triazol-3-yl)thio)ethylidene)-N-(2,5-dichloro-4-(dimethylamino)phenyl)hydrazine-1-carbothioamide] | 11300 ± 300 nM | 1.09 | 12.3 ± 0.3 µM |  | 
Cc1ccc(NC(=S)N/N=C(/CSc2nnc(-c3ccc([N+](=O)[O-])cc3)[nH]2)c2ccc(Br)cc2)c([N+](=O)[O-])c1 [6h, (.E)-2-(1-(4-bromophenyl)-2-((5-(4-nitrophenyl)-4H-1,2,4-triazol-3-yl)thio)ethylidene)-N-(4-methyl-2-nitrophenyl)hydrazine-1-carbothioamide] | 9100 ± 200 nM | 1.23 | 11.2 ± 0.3 µM |  | 
O=[N+]([O-])c1ccc(NC(=S)N/N=C(/CSc2nnc(-c3ccc([N+](=O)[O-])cc3)[nH]2)c2ccccc2[N+](=O)[O-])cc1 [6s, (.E)-N-(4-nitrophenyl)-2-(1-(2-nitrophenyl)-2-((5-(4-nitrophenyl)-4H-1,2,4-triazol-3-yl)thio)ethylidene)hydrazine-1-carbothioamide] | 1400 ± 50 nM | 1.64 | 2.3 ± 0.1 µM |  | 
O=[N+]([O-])c1ccc(NC(=S)N/N=C(/CSc2nnc(-c3ccc([N+](=O)[O-])cc3)[nH]2)c2ccc(Cl)c(Cl)c2)cc1 [6n, (.E)-2-(1-(3,4-dichlorophenyl)-2-((5-(4-nitrophenyl)-4H-1,2,4-triazol-3-yl)thio)ethylidene)-N-(4-nitrophenyl)hydrazine-1-carbothioamide] | 700 ± 50 nM | 2.43 | 1.7 ± 0.05 µM |  | 
Cc1ccc(-c2ccc(NC(=S)N/N=C(/CSc3nnc(-c4ccc([N+](=O)[O-])cc4)[nH]3)c3ccc(Cl)c(Cl)c3)cc2)cc1 [6p, (.E)-2-(1-(3,4-dichlorophenyl)-2-((5-(4-nitrophenyl)-4H-1,2,4-triazol-3-yl)thio)ethylidene)-N-(4′-methyl-[1,1′-biphenyl]-4-yl)hydrazine-1-carbothioamide] | 3200 ± 100 nM | 1.44 | 4.6 ± 0.1 µM |  | 
COc1ccc(OC)c(/C(CSc2nnc(-c3ccc([N+](=O)[O-])cc3)[nH]2)=N\NC(=S)Nc2ccc(C)cc2[N+](=O)[O-])c1 [6f, (.E)-2-(1-(2,5-dimethoxyphenyl)-2-((5-(4-nitrophenyl)-4H-1,2,4-triazol-3-yl)thio)ethylidene)-N-(4-methyl-2-nitrophenyl)hydrazine-1-carbothioamide] | 2400 ± 100 nM | 1.96 | 4.7 ± 0.1 µM |  | 
Cc1ccc(-c2ccc(NC(=S)N/N=C(/CSc3nnc(-c4ccc([N+](=O)[O-])cc4)[nH]3)c3ccc(-c4ccccc4)cc3)cc2)cc1 [6d, (.E)-2-(1-([1,1′-biphenyl]-4-yl)-2-((5-(4-nitrophenyl)-4H-1,2,4-triazol-3-yl)thio)ethylidene)-N-(4′-methyl-[1,1′-biphenyl]-4-yl)hydrazine-1-carbothioamide] |  |  |  | completely inactive | completely inactive
Cc1ccc(NC(=S)N/N=C(/CSc2nnc(-c3ccc([N+](=O)[O-])cc3)[nH]2)c2ccccc2[N+](=O)[O-])c([N+](=O)[O-])c1 [6r, (.E)-N-(4-methyl-2-nitrophenyl)-2-(1-(2-nitrophenyl)-2-((5-(4-nitrophenyl)-4H-1,2,4-triazol-3-yl)thio)ethylidene)hydrazine-1-carbothioamide] | 1300 ± 50 nM | 1.69 | 2.2 ± 0.1 µM |  | 
O=[N+]([O-])c1ccc(-c2nnc(SC/C(=N/NC(=S)Nc3ccccc3)c3ccc(-c4ccccc4)cc3)[nH]2)cc1 [6c, (.E)-2-(1-([1,1′-biphenyl]-4-yl)-2-((5-(4-nitrophenyl)-4H-1,2,4-triazol-3-yl)thio)ethylidene)-N-phenylhydrazine-1-carbothioamide] |  |  |  | completely inactive | completely inactive
COc1ccc(OC)c(/C(CSc2nnc(-c3ccc([N+](=O)[O-])cc3)[nH]2)=N\NC(=S)Nc2ccc([N+](=O)[O-])cc2)c1 [6g, (.E)-2-(1-(2,5-dimethoxyphenyl)-2-((5-(4-nitrophenyl)-4H-1,2,4-triazol-3-yl)thio)ethylidene)-N-(4-nitrophenyl)hydrazine-1-carbothioamide] | 2100 ± 100 nM | 2.04 | 4.3 ± 0.1 µM |  | 
COc1cccc(/C(CSc2nnc(-c3ccc([N+](=O)[O-])cc3)[nH]2)=N\NC(=S)Nc2ccc([N+](=O)[O-])cc2)c1 [6u, (.E)-2-(1-(3-methoxyphenyl)-2-((5-(4-nitrophenyl)-4H-1,2,4-triazol-3-yl)thio)ethylidene)-N-(4-nitrophenyl)hydrazine-1-carbothioamide] | 2900 ± 100 nM | 1.28 | 3.7 ± 0.1 µM |  | 
O=[N+]([O-])c1ccc(-c2nnc(SC/C(=N/NC(=S)Nc3cc(Cl)c(Cl)cc3[N+](=O)[O-])c3ccccc3Br)[nH]2)cc1 [6a, (.E)-2-(1-(2-bromophenyl)-2-((5-(4-nitrophenyl)-4H-1,2,4-triazol-3-yl)thio)ethylidene)-N-(4,5-dichloro-2-nitrophenyl)hydrazine-1-carbothioamide] | 2200 ± 100 nM | 1.77 | 3.9 ± 0.1 µM |  | 
